{
  "source": "patent US20240270855A1",
  "about": "“NEURO-MESENCHYME UNITS CONTROL ILC2 AND OBESITY VIA A BRAIN-ADIPOSE CIRCUIT” (Fundação D. Anna de Sommer Champalimaud e Dr. Carlos Montez …, priority 2021, published 2024)",
  "molecules": {"B1": {"name": "GDNF: glial cell-derived neurotrophic factor, a GFRα ligand that activates RET (protein, UniProt P39905 78-211, looked up)", "Glial cell line-derived …": "SPDKQMAVLPRRERNRQAAAANPENSRGKGRRGQRGKNRGCVLTAIHLNVTDLGLGYETKEELIFRYCSGSCDAAETTYDKILKNLSRNRRLVSDKVGQACCRPIAFDDDLSFLDDNLVYHILRKHSAKRCGCI"}},
  "key": {"[1]": {"test_system": "GAT", "assay": "Quantitative RT-PCR gene expression in GAT and GAT cell populations after 6-OHDA or clenbuterol", "format": "in vivo, mice", "details": "for expression of IL-33: GAT and PDGFRA+MSCs of treated mice; for Gdnf expression in other mesenchymal counterparts, adipocytes and endothelial cells: GAT cell populations; for expression of IL-25: PDGFRA+MSCs of treated mice; for Gdnf expression in PDGFRA+MSC: sorted GAT cell population; for Gdnf expression in the GAT: total GAT RNA"}, "[2]": {"test_system": "PDGFRA positive MSC", "assay": "RNA sequencing of PDGFRA positive MSC from 6-OHDA-treated mice", "format": "in vivo", "details": "RNAseq, 6-OHDA vs vehicle"}, "[3]": {"test_system": "dopaminergic and noradrenergic neurons", "assay": "Chemical sympathetic ablation with 6-OHDA, GAT ILC2 cytokines by flow cytometry", "format": "in vivo, mice"}, "[4]": {"target": "RET (Homo sapiens, UniProt P07949)", "sequence (P07949 29-1114)": "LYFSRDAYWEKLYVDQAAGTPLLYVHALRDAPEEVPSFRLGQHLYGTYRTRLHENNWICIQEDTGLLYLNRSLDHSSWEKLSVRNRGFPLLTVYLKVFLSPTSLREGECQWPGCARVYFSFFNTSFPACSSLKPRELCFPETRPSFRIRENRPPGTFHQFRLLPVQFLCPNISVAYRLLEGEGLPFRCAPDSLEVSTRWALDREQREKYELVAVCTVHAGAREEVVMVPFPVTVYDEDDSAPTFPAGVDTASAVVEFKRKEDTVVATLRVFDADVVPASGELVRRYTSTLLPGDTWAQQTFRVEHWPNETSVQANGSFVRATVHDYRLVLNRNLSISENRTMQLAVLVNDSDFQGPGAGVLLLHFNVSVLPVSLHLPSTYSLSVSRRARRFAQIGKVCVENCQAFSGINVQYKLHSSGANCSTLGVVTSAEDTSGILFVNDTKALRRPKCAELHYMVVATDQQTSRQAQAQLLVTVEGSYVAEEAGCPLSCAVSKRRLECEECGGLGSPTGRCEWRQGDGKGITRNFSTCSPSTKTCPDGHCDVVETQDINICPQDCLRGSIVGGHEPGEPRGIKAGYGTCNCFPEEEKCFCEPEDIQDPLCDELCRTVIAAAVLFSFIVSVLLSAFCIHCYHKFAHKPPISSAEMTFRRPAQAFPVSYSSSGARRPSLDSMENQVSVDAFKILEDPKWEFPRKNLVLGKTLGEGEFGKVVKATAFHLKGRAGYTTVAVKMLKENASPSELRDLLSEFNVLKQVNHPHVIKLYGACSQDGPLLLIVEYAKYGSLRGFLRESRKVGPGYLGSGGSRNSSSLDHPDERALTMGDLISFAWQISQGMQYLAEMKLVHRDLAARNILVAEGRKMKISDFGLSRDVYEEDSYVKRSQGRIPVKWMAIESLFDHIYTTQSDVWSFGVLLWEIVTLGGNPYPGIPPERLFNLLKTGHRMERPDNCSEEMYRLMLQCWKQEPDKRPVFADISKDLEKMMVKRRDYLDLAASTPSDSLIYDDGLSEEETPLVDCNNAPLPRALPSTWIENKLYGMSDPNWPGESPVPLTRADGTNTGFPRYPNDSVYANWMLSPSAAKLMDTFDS", "details": "Akeno-Stuart et al., Cancer Res. 2007; cited from earlier work"}, "[5]": {"test_system": "DREADD-carrying neurons", "assay": "Chemogenetic modulation of GAT neurons (AAV DREADD injected in GAT, then CNO)", "format": "in vivo, mice", "details": "for interleukin-33 (Il33) expression: vs contralateral control"}, "[6]": {"test_system": "RET", "details": "Tokugawa et al., Neurochem Int. 2003; cited from earlier work"}, "[7]": {"test_system": "purified GAT PDGFRA+MSCs", "assay": "In vitro MSC activation with clenbuterol, MSC-derived GDNF", "format": "cell-based, mice", "details": "10 μg/ml clenbuterol, 16 hours", "description": "In vitro and in vivo MSC activation: For in vitro experiments, purified GAT PDGFRA+MSCs were cultured in complete DMEM (supplemented with 10% FBS, 1% HEPES, sodium pyruvate, glutamine, streptomycin and penicillin (Corning)) at 37° C. After 2 hours of rest in complete DMEM without FBS, MSCs were stimulated for 16 hours with 10 μg/ml clenbuterol. For RNA analysis, MSCs were lysed using RLT buffer (Qiagen). For GDNF protein analysis, MSCs were incubated with brefeldin A (eBioscience) during clenbuterol stimulation prior to intracellular staining."}, "[8]": {"target": "T1, beta-2 adrenergic receptor (ADRB2) (Mus musculus, UniProt P18762)", "T1 construct": "endogenous in cells; host or cells: C57BL/6J mice in vivo", "T1 sequence (P18762 whole entry)": "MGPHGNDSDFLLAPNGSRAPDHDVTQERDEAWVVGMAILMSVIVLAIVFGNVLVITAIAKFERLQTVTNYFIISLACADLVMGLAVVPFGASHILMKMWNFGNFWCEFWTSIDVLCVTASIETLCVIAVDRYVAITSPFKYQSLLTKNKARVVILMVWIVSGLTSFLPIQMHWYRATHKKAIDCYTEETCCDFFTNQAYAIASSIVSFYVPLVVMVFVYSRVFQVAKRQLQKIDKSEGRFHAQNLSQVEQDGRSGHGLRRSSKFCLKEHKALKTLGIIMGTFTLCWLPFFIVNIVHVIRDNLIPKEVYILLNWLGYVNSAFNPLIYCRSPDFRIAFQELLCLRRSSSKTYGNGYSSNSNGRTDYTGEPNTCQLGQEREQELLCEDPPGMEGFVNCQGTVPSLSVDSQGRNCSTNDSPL", "assay": "Systemic activation of ADRB2 with clenbuterol, GAT ILC2 cytokines", "format": "in vivo, mice", "details": "clenbuterol in drinking water, 10 mg/kg/day, 8 days"}, "[9]": {"test_system": "GAT explant/ILC2 co-cultures", "assay": "GAT explant/ILC2 co-culture with GDNF, Ucp1 expression", "format": "cell-based, mice", "details": "50 ng/mL, 16 hours, Ret^WT vs Ret^Δ ILC2; RET dependent", "description": "Quantitative RT-PCR: Total RNA from sorted or cultured cells was extracted using RNeasy micro kit or RNeasy mini kit (Qiagen) according to the manufacturer's protocol. When indicated, total adipose tissue or adipocyte fraction was collected to Trizol (Invitrogen) followed by chloroform and isopropanol RNA extraction, according to the manufacturer's protocol. RNA concentration was determined using Nanodrop Spectrophotometer (Nanodrop Technologies). Quantitative real-time PCR was performed in StepOne and QuantStudio 5 real-time PCR systems (Applied Biosystems) with Hprt and Gapdh as housekeeping genes. Briefly, High Capacity RNA-to-cDNA Kit (Applied Biosystems) were used to retro-transcribe RNA, followed by a pre-amplification PCR using TaqMan PreAmp Master Mix (Applied Biosystems). TaqMan Gene Expression Master Mix (Applied Biosystems) was used in the real-time PCR. TaqMan Gene Expression Assays (Applied Biosystems) were the following: Hprt Mm00446968_m1; Gapdh Mm99999915_g1; […] Mm00439646_m1; […] Mm00434204_m1; Areg Mm01354339_m1; Penk Mm01212875_m1; Ret Mm00436304_m1; Gdnf Mm00599849_m1; Ucp1 Mm01244861_m1; Adrb2 Mm02524224_s1; Il25 Mm00499822_m1; and Il33 Mm00505403_m1. Analysis was performed using the comparative CT method (2^−ΔCT). When comparison or fold change between samples was required, the comparative ΔCT method (2^−ΔΔCT) was applied. […]"}, "[10]": {"details": "GAT, 6-OHDA 200 mg/kg intraperitoneally 3 days and 1 day before analysis, vs vehicle"}, "[11]": {"details": "AAV(3D) (activator DREADD), vs sham contralateral control"}, "[12]": {"details": "AAV(4D) (inhibitor DREADD), vs sham contralateral control"}},
  "data": [
    {"molecule": "NCCc1cc(O)c(O)cc1O", "note": "[6-OHDA, 6-hydroxydopamine]", "values": [
      {"measurement": "expression of IL-33", "setting": "[1]", "result": "unperturbed"},
      {"measurement": "Gdnf expression in other mesenchymal counterparts, adipocytes and endothelial cells", "setting": "[1]", "result": "unperturbed"},
      {"measurement": "expression of IL-25", "setting": "[1]", "result": "unperturbed"},
      {"measurement": "Gdnf expression in PDGFRA+MSC", "setting": "[1]", "result": "modulated"},
      {"measurement": "Gdnf expression in the GAT", "setting": "[1]", "result": "modulated"},
      {"measurement": "GDNF expression by PDGFRA positive MSC", "setting": "[2]", "result": "significantly reduced"},
      {"measurement": "ILC2 cytokine production", "setting": "[3]; Adrb2^ΔIl7ra mice", "result": "still impaired"},
      {"measurement": "ILC2-derived IL-13", "setting": "[3]; [10]", "result": "pronounced reduction"},
      {"measurement": "ILC2-derived Met-Enk", "setting": "[3]; [10]", "result": "pronounced reduction"},
      {"measurement": "ILC2-derived interleukin (IL-) 5", "setting": "[3]; [10]", "result": "pronounced reduction"},
      {"measurement": "ILC2 cytokine production", "setting": "[3]; Ret^ΔIl5 mice", "result": "unperturbed"},
      {"measurement": "percentage of CD4 T cells", "setting": "[3]; after 6-OHDA administration", "result": "no change"}
    ]},
    {"molecule": "CCN1CCN(Cc2ccc(NC(=O)Nc3ccc(Oc4cc(NC)ncn4)cc3)cc2C(F)(F)F)CC1", "note": "[AST 487, 1-[4-[(4-ethylpiperazin-1-yl)methyl]-3-(trifluoromethyl)phenyl]-3-[4-[6-(methylamino)pyrimidin-4-yl]oxyphenyl]urea]", "values": [
      {"measurement": "RET autophosphorylation and activation of downstream effectors", "setting": "[4]", "result": "inhibit RET autophosphorylation"}
    ]},
    {"molecule": "C[N+]1([O-])CCN(C2=Nc3cc(Cl)ccc3Nc3ccccc32)CC1", "note": "[CNO, Clozapine-N-oxide]", "values": [
      {"measurement": "GDNF expression in GAT", "setting": "[5]; [11]", "result": "increased"},
      {"measurement": "ILC2 function", "setting": "[5]; [11]", "result": "increased"},
      {"measurement": "interleukin-33 (Il33) expression", "setting": "[5]; AAV(3D)", "result": "did not affect"},
      {"measurement": "GDNF expression in GAT", "setting": "[5]; [12]", "result": "reduced"},
      {"measurement": "innate type 2 cytokines", "setting": "[5]; [12]", "result": "reduced"},
      {"measurement": "interleukin-33 (Il33) expression", "setting": "[5]; AAV(4D)", "result": "did not affect"}
    ]},
    {"molecule": "CCN(CC)CCCC(C)Nc1cc(/C=C/c2ccccc2Cl)nc2cc(Cl)ccc12", "note": "(centres unmarked) [XIB4035, N(4)-(7-chloro-2-[(E)-2-(2-chloro-phenyl)-vinyl]-quinolin-4-yl)-N(1),N(1)-diethyl-pentane-1,4-diamine]", "values": [
      {"measurement": "RET autophosphorylation", "setting": "[6]", "result": "induced RET autophosphorylation"}
    ]},
    {"molecule": "CC(C)(C)NCC(O)c1cc(Cl)c(N)c(Cl)c1", "note": "(centres unmarked) [clenbuterol]", "values": [
      {"measurement": "expression of IL-33", "setting": "[1]", "result": "unperturbed"},
      {"measurement": "Gdnf expression in other mesenchymal counterparts, adipocytes and endothelial cells", "setting": "[1]", "result": "unperturbed"},
      {"measurement": "expression of IL-25", "setting": "[1]", "result": "unperturbed"},
      {"measurement": "Gdnf expression in PDGFRA+MSC", "setting": "[1]", "result": "modulated"},
      {"measurement": "Gdnf expression in the GAT", "setting": "[1]", "result": "modulated"},
      {"measurement": "MSC-derived GDNF", "setting": "[7]", "result": "increased"},
      {"measurement": "ILC2-derived cytokines in the GAT", "setting": "[8]", "result": "increased"}
    ]},
    {"molecule": "B1", "values": [
      {"measurement": "RET autophosphorylation", "setting": "[6]", "result": "induced RET autophosphorylation"},
      {"measurement": "Ucp1 expression", "setting": "[9]", "result": "efficiently induced"}
    ]}
  ]
}
